Measured values: patent publication US20250367230A1, “Method for preparing SAMe microcapsules” (XIAMEN KINGDOMWAY BIOTECH. CO., LTD., priority 2024, published 2025)

Experiments:
[1] = test system: mouse gastrointestinal tract; assay: Effect on mouse gastrointestinal tract (indomethacin/ethanol ulcer model, gastric mucosal lesion area); type: in vivo, mice (C57); conditions: mice, 5.0 g/kg·bw gavage once a day for 21 days, then indomethacin 10 mg/kg·bw i.p. and 60% ethanol gavage
Text: Experimental animals: Healthy adult mice (C57, purchased from Pabeile Experimental Animal Breeding Co., Ltd.), with body weight of 18 to 22 g.
Experimental materials: The test samples were SAMe microcapsules obtained from the formulas in Examples 1 to 5 and Comparative Examples 1 to 9, and SAMe raw material.
Experimental method: The designed dose (5.0 g/kg·bw) was equivalent to 5 times the recommended dosage for humans, and an ulcer model control group was set. Each group was gavaged with the test sample once a day, and the control group was fed with an equal volume of distilled water. After 21 consecutive days of feeding, the animals were fasted for 1 day. 0.5 h after the last gavage, the mice of each group were intraperitoneally injected with indomethacin suspension (purchased from Liaoyang Helin Pharmaceutical Co., Ltd.) (10 mg/kg·bw), and 1 h later, the mice were gavaged with 60% ethanol ([…]). After 1 h, the mice were killed by cervical dislocation, laparotomy and ligation of pylorus were carried out, and 1 mL of 1% formalin was orally gavaged. The cardia was immediately ligated and the entire stomach was cut off. After flushing the stomach contents, the stomach was spread on a glass plate. Under a shadowless magnifying lamp, the area of gastric mucosal lesions was measured and statistically analyzed.

[2] = Determination of pH value of SAMe microcapsules; type: physicochemical; conditions: 1 g of sample added to 100 g of water
Method: 1 g of each of the above samples was taken and added to 100 g of water, and the pH value was measured.

Question: What does the source list for “S-Adenosyl-L-methionine Disulfate Tosylate [SAMe raw material]”?
Answer: Lesion area (gastric mucosal lesions) [1]: 11.57 ± 4.35 mm^2; pH value [2]: 1.3
